pIC50: −log10 of the molar value. Counter-ions that a name gives are not always drawn. Like-named read-outs stand apart in the source and are kept apart here.
Legend:
[1] = tested on: sound-induced tonic convulsions in DBA/2 mice; experiment: Audiogenic seizure model in DBA/2 mice; assay type: in vivo; settings: Mus musculus, protected/tested, read-out: Number of Mice Protected From Tonic Convulsions (converted); for responders at 30 mg/kg: 30 mg/Kg IV; for responders at 10 mg/kg: 10 mg/Kg IV
Protocol: Audiogenic Seizure Model in DBA/2 Mice
A compound of the present invention was dissolved in water using 10% (weight/volume) Emulphor (GAF Corp., Wayne, N.J.) surfactant. Substances were administered by intravenous injection into the retro-orbital venous sinus of male mice (3-4 weeks old, Jackson Laboratories, Bar Harbour, Me.). All testing was preformed 15 minutes or 45 minutes after drug injection. Immediately before anticonvulsant testing, mice were placed upon a wire mesh, 4 inches square suspended from a steel rod. The square was slowly inverted through 180 degrees and mice observed for 30 seconds. Any mouse falling from the wire mesh was scored as ataxic.
Mice were placed into an enclosed acrylic plastic chamber (21 cm height, approximately 30 cm diameter) with a high-frequency speaker (4 cm diameter) in the center of the top lid. An audio signal generator (Protek model B-810) was used to produce a continuous sinusoidal tone that Was swept linearly in frequency between 8 kHz and 16 kHz once each 10 msec. The average sound pressure level (SPL) during stimulation was approximately 100 dB at the floor of the chamber. Mice were placed within the chamber and allowed to acclimatize for 1 minute. DBA/2 mice in the vehicle-treated group responded to the sound stimulus (applied until tonic extension occurred, or for a maximum of 60 sec) with a characteristic seizure sequence consisting of wild running followed by clonic seizures, and later by tonic extension, and finally by respiratory arrest and death in 80% or more of the mice. In vehicle-treated mice, the entire sequence of seizures to respiratory arrest lasts approximately 15-20 seconds.
The incidence of all the seizure phases in the drug-treated and vehicle-treated mice was recorded, and the occurrence of tonic seizures were used for calculating anticonvulsant ED50 values by probit analysis. Mice were used only once for testing at each time and dose point.

[2] = molecular target: T1, N-type calcium channels in IMR-32 cells (Homo sapiens, UniProt Q00975); experiment: N-type Ca2+ channel blocking potency in IMR-32 cells using Indo-1; assay type: cell-based; settings: for pIC50: IMR-32 cells; for inhibition at 1 µM / inhibition at 10 µM: IMR-32, IMR-32 cells; for inhibition at 1 µM: read-out: IMR32 % blockage at 1 μM; for inhibition at 10 µM: read-out: IMR32 % blockage at 10 μM
T1 construct: host or cells: IMR-32 cells differentiated with dibutyryl cAMP and bromodeoxyuridine
In short: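 Differentiated IMR-32 cells loaded with Indo-1 AM were preincubated with compound and 5 μM nitrendipine (L-type block) for 10 min at 30° C in HEPES/Tris pH 7.4 HBSS with 0.5% BSA. Cells were depolarized with KCl/CaCl2, and the 400/490 nm emission ratio rise over basal was measured. IC50 came from a four-parameter logistic fit.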

[3] = molecular target: T2, L-type calcium channels in A10 cells (Rattus norvegicus, UniProt P22002); experiment: L-type Ca2+ channel blocking potency in A10 cells (FLIPR); assay type: cell-based; settings: read-out: FLPA10 IC50
T2 construct: which endogenously expresses L-type calcium channels; host or cells: A10 rat embryonic thoracic aorta smooth muscle cells
T2 sequence (P22002 whole entry): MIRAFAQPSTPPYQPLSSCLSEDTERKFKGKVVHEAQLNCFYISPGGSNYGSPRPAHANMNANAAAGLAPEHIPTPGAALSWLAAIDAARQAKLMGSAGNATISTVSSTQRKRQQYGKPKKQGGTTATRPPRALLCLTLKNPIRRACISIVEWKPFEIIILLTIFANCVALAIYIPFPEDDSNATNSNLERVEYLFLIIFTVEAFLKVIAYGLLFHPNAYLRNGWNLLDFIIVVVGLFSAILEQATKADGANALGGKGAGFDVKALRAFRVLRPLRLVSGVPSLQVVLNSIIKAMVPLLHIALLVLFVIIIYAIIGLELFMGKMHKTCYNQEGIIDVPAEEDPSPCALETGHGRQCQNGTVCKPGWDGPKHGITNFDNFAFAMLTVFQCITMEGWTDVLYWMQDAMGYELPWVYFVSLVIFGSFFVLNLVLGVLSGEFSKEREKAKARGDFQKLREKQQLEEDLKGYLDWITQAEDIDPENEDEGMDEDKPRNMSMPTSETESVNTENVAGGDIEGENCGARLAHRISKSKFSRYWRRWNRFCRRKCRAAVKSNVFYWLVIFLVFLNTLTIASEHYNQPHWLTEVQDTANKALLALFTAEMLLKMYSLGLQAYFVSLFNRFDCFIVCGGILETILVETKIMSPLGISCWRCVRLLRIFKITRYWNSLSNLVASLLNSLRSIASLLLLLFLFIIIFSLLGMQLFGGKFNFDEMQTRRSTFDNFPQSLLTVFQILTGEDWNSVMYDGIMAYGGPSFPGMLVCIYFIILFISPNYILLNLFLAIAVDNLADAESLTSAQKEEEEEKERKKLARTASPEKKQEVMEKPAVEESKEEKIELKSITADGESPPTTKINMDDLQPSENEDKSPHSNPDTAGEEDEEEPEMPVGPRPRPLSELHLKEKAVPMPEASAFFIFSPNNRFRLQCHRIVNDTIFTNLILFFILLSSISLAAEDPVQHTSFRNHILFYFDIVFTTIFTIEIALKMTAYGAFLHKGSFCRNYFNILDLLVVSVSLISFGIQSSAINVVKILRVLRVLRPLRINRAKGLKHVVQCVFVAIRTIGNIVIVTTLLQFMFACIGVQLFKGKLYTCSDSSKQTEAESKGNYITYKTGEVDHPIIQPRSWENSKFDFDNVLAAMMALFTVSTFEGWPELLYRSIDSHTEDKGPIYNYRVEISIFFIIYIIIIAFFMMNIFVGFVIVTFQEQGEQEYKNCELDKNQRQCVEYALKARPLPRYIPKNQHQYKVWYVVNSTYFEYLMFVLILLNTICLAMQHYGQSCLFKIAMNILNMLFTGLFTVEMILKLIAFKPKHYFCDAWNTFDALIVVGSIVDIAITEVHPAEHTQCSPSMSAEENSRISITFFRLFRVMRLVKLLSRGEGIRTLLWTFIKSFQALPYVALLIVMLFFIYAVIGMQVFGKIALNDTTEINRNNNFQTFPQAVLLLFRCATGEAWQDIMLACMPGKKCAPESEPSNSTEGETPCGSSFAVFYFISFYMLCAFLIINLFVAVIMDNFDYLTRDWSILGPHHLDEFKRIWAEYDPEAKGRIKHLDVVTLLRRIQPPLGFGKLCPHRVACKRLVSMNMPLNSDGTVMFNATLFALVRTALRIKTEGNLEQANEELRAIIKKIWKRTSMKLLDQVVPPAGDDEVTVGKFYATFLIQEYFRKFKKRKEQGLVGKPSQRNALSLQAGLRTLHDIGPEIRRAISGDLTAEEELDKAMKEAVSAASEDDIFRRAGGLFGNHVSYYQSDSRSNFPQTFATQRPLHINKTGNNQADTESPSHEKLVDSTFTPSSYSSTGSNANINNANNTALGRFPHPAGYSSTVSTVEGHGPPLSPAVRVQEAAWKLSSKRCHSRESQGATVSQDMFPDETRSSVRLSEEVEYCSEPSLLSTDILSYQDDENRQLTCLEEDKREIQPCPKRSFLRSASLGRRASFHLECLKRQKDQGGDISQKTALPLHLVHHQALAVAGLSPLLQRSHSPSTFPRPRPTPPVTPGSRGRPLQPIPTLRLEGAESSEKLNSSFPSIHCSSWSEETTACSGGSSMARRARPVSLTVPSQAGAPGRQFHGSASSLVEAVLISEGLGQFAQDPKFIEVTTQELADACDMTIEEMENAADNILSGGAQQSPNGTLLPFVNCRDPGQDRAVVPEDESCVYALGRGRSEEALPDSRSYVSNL
T2 sequence (P54290 25-944 partner limits assumed): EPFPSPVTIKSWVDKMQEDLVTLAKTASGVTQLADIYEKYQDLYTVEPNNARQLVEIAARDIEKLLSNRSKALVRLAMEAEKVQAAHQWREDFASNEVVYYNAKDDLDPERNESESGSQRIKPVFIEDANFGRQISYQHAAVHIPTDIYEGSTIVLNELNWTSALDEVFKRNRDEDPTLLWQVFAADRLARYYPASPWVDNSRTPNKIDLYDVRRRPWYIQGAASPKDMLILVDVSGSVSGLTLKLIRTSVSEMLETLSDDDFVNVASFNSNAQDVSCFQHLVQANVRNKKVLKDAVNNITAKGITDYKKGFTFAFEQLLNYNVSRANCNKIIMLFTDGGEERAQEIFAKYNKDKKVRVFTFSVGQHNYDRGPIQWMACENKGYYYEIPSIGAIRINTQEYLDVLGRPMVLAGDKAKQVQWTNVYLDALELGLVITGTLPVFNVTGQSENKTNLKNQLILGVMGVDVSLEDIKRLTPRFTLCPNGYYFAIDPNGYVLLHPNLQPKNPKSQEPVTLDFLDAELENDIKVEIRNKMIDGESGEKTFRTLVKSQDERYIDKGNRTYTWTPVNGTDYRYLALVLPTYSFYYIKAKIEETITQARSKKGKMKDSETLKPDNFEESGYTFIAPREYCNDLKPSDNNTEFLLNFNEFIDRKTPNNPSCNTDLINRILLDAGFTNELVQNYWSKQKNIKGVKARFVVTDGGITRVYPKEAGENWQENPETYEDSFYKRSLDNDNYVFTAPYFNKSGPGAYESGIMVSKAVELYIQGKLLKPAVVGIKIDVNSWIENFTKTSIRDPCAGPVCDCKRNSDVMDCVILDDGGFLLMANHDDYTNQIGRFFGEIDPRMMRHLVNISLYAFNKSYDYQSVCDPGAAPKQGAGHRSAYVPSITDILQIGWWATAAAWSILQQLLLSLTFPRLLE
T2 sequence (P54290 945-1091 partner limits assumed): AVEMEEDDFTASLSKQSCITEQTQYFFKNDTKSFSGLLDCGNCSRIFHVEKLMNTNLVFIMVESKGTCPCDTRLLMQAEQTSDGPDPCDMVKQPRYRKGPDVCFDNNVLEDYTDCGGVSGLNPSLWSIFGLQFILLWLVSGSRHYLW
T2 sequence (P54287 whole entry partner): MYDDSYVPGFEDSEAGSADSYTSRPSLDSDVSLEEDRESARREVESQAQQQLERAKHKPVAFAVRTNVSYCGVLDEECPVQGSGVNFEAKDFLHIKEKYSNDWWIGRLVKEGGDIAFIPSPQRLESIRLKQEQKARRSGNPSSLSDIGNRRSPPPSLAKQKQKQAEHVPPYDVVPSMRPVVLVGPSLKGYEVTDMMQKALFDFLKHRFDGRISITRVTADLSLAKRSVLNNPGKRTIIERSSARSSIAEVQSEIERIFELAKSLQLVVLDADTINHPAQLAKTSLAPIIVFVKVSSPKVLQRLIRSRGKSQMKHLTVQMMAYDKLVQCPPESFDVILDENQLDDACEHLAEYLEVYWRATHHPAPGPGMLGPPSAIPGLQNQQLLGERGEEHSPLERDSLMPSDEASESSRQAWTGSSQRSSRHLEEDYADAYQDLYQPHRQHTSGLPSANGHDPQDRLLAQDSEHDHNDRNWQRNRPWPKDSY
Protocol: Measurement of L-type Ca^2+ Channel Blocking Potencies of Compounds in A10 Cells
Calcium flux through voltage-sensitive calcium channels was assessed by time-resolved monitoring of the fluorescence of pre-loaded calcium-sensitive dyes using FLIPR, a fluorescent image plate reader (Molecular Devices Co.). The A10 smooth muscle cell line derived from embryonic thoracic aorta of the DBIX rat (ATCC, CRL-1476) which endogenously expresses L-type calcium channels. The growth media for A10 cells was Ham's F12/DME high glucose (Irvine Scientific, 9052), supplemented with 20% fetal bovine serum (HyClone Labs, A-1115-L), and 1% each of L-glutamine and antibiotic-antimycotic (same source as above).
Cells were grown to confluency and replated on black-sided 96-well plates (Costar, 3603) for use in FLIPR. Two days after replating, growth media was removed and cells were loaded at 37° C. with 100 μL media containing 1 μM Oregon Green 488 Bapta-1 dye (Molecular Probes, O-6807) for 1 to 3 hours. The dye-containing media was then washed away with buffer (composition in mM: 1.25 CaCl2, 1.2 MgSO4, 11 glucose, 10 HEPES, 3.0 KCl, 137.0 NaCl, pH 7.4 with Tris base) in a Denley Cellwash (Labsystems, CW018B). The residual buffer volume was adjusted to 50 μL. A 5 minute drug-pre-incubation period at 35° C. was initiated when 50 μL of drug-containing buffer was pipetted into the cell plate with the 96-well pipettor integrated in the FLIPR apparatus. Fluorescent counts were monitored at 20 second intervals for 360 seconds, beginning 60 seconds prior to the delivery of drug-containing buffer. Following drug addition, 100 μL aliquots of a high K^+, depolarizing stimulus (composition in mM: 1.25 CaCl2, 1.2 MgSO4, 11 glucose, 10 HEPES, 140.0 KCl, pH 7.4 with Tris base) were added to each well, and fluorescence was monitored at 1 second intervals for 120 seconds beginning 10 seconds prior to the stimulus addition. CCD camera exposure time was 0.4 seconds, laser excitation was at 488 nm with a power of 0.2-0.5W, and a 510 to 560 nm bandpass interference filter preceded the camera.
Data was analyzed as a summation of fluorescent counts above basal during the stimulation period (an approximation of area under the curve), after normalizing the data with a spatial uniformity correction (for variations in laser illumination and cell density) and a negative control correction (zero calcium increase defined as the fluorescence reading in the presence of saturating pharmacologic block of the respective calcium channel). Drug effects were expressed as percent inhibition of fluorescence from an average of 8 K^+-stimulated wells which were pre-treated in the drug incubation period with buffer only. In the A10 cells, the pharmacologic agent used to define zero calcium influx was nitrendipine (RBI, N-144) at a final concentration of 1.0×10^−6 M.

[4] = estimated from two data points, read-out: IMR32 IC50 (estimated IC50 values based on two data points)

Row | SMILES | responders at 30 mg/kg ([1]; 0.25 h, 15 min posttreatment) | responders at 30 mg/kg ([1]; 0.75 h, 45 min posttreatment) | pIC50 [2, 4] | pIC50 [3] | responders at 10 mg/kg ([1]; 0.25 h, 15 min posttreatment) | responders at 10 mg/kg ([1]; 0.75 h, 45 min posttreatment) | melting point | inhibition at 1 µM [2] | inhibition at 10 µM [2] | pIC50 ([2]; 5 μM nitrendipine present, read-out: IMR32 IC50)
1 | CC(C)C[C@H](NC1CCCCC1)C(=O)N1CCN(C(c2ccc(F)cc2)c2ccc(F)cc2)CC1 [Example 38, (S)-1-{4-[Bis-(4-fluoro-phenyl)-methyl]-piperazin-1-yl}-2-cyclohexylamino-4-methyl-pentan-1-one] | 80% | 20% | 5.92 | 6.21 |  |  |  |  |  | 
2 | CC(C)CCN(C)[C@@H](CC(C)C)C(=O)N1CCN(C(c2ccc(F)cc2)c2ccc(F)cc2)CC1 [Example 46, 1-{4-[Bis-(4-fluoro-phenyl)-methyl]-piperazin-1-yl}-4-methyl-2-[methyl-(3-methyl-butyl)-amino]-pentan-1-one dihydrochloride] |  |  | 6.48 | 5.74 | 80% | 20% |  |  |  | 
3 | CC(C)[C@H](NC(=O)N1CCCCCC1)C(=O)NCCCC(c1ccc(F)cc1)c1ccc(F)cc1 [Example 26, (S)-Azepane-1-carboxylic acid {1-[4,4-bis-(4-fluoro-phenyl)-butylcarbamoyl]-2-methyl-propyl}-amide] |  |  | 6.08 | 6.62 |  |  | 32 to 50 °C |  |  | 
4 | COc1cc(CN[C@@H](CC(C)C)C(=O)N2CCN(C(c3ccc(F)cc3)c3ccc(F)cc3)CC2)cc(OC)c1OC [Example 60, (S)-1-{4-[Bis-(4-fluoro-phenyl)-methyl]-piperazin-1-yl}-4-methyl-2-(3,4,5-trimethoxy-benzylamino)-pentan-1-one] |  |  |  | 6.66 |  |  | 58 to 62 °C | 26% | 95% | 
5 | N[C@@H](Cc1ccccc1)C(=O)N1CCN(C(c2ccc(F)cc2)c2ccc(F)cc2)CC1 [Example 52, (S)-2-Amino-1-(4-[bis-(4-fluoro-phenyl)-methyl]-piperazin-1-yl}-3-phenyl-propan-1-one] | 100% | 80% |  | 6.37 |  |  |  | 23% | 99% | 
6 | CCC(C)[C@H](NC(=O)N1CCCCCC1)C(=O)N1CCN(C(c2ccc(F)cc2)c2ccc(F)cc2)CC1 (stereo partly drawn) [Example 43, (S)-Azepane-1-carboxylic acid (1-{4-[bis-(4-fluoro-phenyl)-methyl]-piperazine-1-carbonyl}-2-methyl-butyl)-amide] |  |  | 6.33 | 6.36 |  |  | 64 to 77 °C |  |  | 
7 | CC(C)N[C@@H](Cc1ccccc1)C(=O)N1CCN(C(c2ccc(F)cc2)c2ccc(F)cc2)CC1 [Example 54, (S)-1-{4-[Bis-(4-fluoro-phenyl)-methyl]-piperazin-1-yl}-2-isopropylamino-3-phenyl-propan-1-one] |  |  |  | 5.89 |  |  | 45 to 58 °C | 25% | 99% | 
8 | O=C(CNC(=O)N1CCCCCC1)N1CCN(C(c2ccc(F)cc2)c2ccc(F)cc2)CC1 [Example 32, (S)-Azepane-1-carboxylic acid (2-{4-[bis-(4-fluoro-phenyl)-methyl]-piperazin-1-yl}-2-oxo-ethyl)-amide] |  |  |  | 5.74 |  |  | 66 to 86 °C |  |  | 6.33
9 | CC(C)C[C@H](NC(=O)N1CCN(c2ccccc2)CC1)C(=O)NCCCC(c1ccc(F)cc1)c1ccc(F)cc1 [Example 17, (S)-4-Phenyl-piperazine-1-carboxylic acid {1-[4,4-bis-(4-fluoro-phenyl)-butylcarbamoyl]-3-methyl-butyl}-amide] |  |  | 5.70 | 7.13 |  |  | 138 to 141 °C |  |  | 
10 | CC(C)C[C@H](N)C(=O)N1CCN(C(c2ccc(F)cc2)c2ccc(F)cc2)CC1 [Example 53, (S)-2-Amino-1-{4-[bis-(4-fluoro-phenyl)-methyl]-piperazin-1-yl}-4-methyl-pentan-1-one] |  |  |  | 6.38 |  |  | 61 to 68 °C | 22% | 78% | 
11 | CC(C)CCN[C@@H](Cc1ccccc1)C(=O)N1CCN(C(c2ccc(F)cc2)c2ccc(F)cc2)CC1.Cl [Example 55, (S)-1-{4-[Bis-(4-fluoro-phenyl)-methyl]-piperazin-1-yl}-2-(3-methyl-butylamino)-3-phenyl-propan-1-one dihydrochloride] |  |  |  | 6.03 |  |  | 172 to 186 °C |  | 104% | 
12 | O=C([C@H](Cc1ccccc1)NC1CCCCC1)N1CCN(C(c2ccc(F)cc2)c2ccc(F)cc2)CC1 [Example 61, (S)-1-{4-[Bis-(4-fluoro-phenyl)-methyl]-piperazin-1-yl}-2-cyclohexylamino-3-phenyl-propan-1-one] |  |  |  | 5.77 |  |  | 60 to 64 °C | 42% | 102% | 
13 | CC(C)C[C@@H](C(=O)NCCCC(c1ccc(F)cc1)c1ccc(F)cc1)N1CCCCC1 [Example 22, (S)-4-Methyl-2-piperidin-1-yl-pentanoic acid [4,4-bis-(4-fluoro-phenyl)-butyl]-amide] |  |  |  | 6.80 |  |  | 52 to 70 °C | 49% | 94% | 
14 | C[C@H](NC(=O)N1CCCCCC1)C(=O)NCCCC(c1ccc(F)cc1)c1ccc(F)cc1 [Example 30, (S)-Azepane-1-carboxylic acid {1-[4,4-bis-(4-fluoro-phenyl)-butylcarbamoyl]-ethyl}-amide] |  |  |  | 5.89 |  |  | 29 to 49 °C | 39% | 100% | 
15 | CC(C)CC(NC(=O)N1CCN(C)CC1)C(=O)N1CCN(C(c2ccc(F)cc2)c2ccc(F)cc2)CC1 (stereo in doubt) [Example 47, (S)-4-Methyl-piperazine-1-carboxylic acid (1-{4-[bis-(4-fluoro-phenyl)-methyl]-piperazine-1-carbonyl}-3-methyl-butyl)-amide] |  |  |  | 5.77 |  |  | 65 to 78 °C | 13% | 54% | 
